Reference: patent US10328135B2, “Method of obtaining cytolytic T cells by using mutant tumor epitopes” (priority 2010, dated 2019)

Columns and labels:
Format in all cases: cell-based, human
CD-4+ cells = experiment: NY-ESO-1 APL cross-presented mini-gene products, IFN-γ ELISA, CD-4+ cells (FIG. 8A)
Description: FIG. 8A. Native and superagonist CTL determinants can be distinguished in bead-based cross presentation assay. Oligonucleotides encoding NY-ESO-1157-170 were cloned into and expressed by pQE40 expression vectors. The mini-gene products were isolated and “fed” to immature dendritic cells as described in the Examples. NY-ESO-1157-170-specific CTL clones were used to detect the presence of the cross-presented mini-gene products (NY-ESO-1157-170). Induced IFN-γ expression was determined by standard sandwich ELISA. Synthetic wild-type peptide was used a positive control. […] Results for CD-4+ cells are shown.
FIG. 8A and FIG. 8B show the ability of several NY-ES0-1APL to stimulate CD-4^| fractions (FIG. 8A) and PBMC (FIG. 8B).

[1] = test system: MART-126-35-specific CTL clone M26-H1; experiment: Saturation mutagenesis APL screen: bead-based cross-presentation by immature dendritic cells, IFN-γ sandwich ELISA; conditions: 200 μl bacterial cultures, 88 clones, CTL clone M26-H1, FIG. 2
[2] = test system: T2 cells pulsed with 1 μM of MART-126-35; experiment: In vitro cytotoxicity assay (51Cr release) by polyclonal CTL lines generated with analog peptides; target T2 pulsed with MART-126-35 (M26)
Description: (§1) Isolated cells were replicated using 30 ng/ml anti-CD3 antibody (OKT3) and IL-2 at 50 U/ml in the presence of irradiated feeder PBMC and LCL for 2 weeks. IL-2 was replenished every 2-3 days.
(§2) Target cells were labeled with 100 μCi of ^51Cr and co-cultured with effector cells for 4 hours at 37° C. plus 5% CO2. […] Released ^51Cr was measured with a gamma scintillation counter and percent specific lysis was determined by using the formula: percent specific release=(experimental release-spontaneous release)/(maximum release-spontaneous release). […]
(§3) “ND” is not done. T2 is a TAP-deficient cell line that expresses peptide-unbound HLA-A2 molecules unless pulsed extracellularly. […] Numbers represent the percentage specific lysis obtained from each target. T375 is a HLA-A2 positive/MART-1 negative cell line.

[3] = test system: Mel 526 (HLA-A2+/MART-1+) melanoma cell line; experiment: In vitro cytotoxicity assay (51Cr release) by polyclonal CTL lines generated with analog peptides; target Mel 526; conditions: target Mel526
Description: as §1, §2, §3

[4] = test system: A375 (HLA-A2+/NY-ESO-1+) melanoma cell line; experiment: In vitro cytotoxicity assay (51Cr release) by polyclonal CTL lines generated with analog peptides; target A375
Description: as §1, §2, §3

[5] = test system: T2 cells pulsed with NY-ESO-1157-165; experiment: In vitro cytotoxicity assay (51Cr release) by polyclonal CTL lines generated with analog peptides; target T2 pulsed with NY-ESO-1157-165 (negative control); conditions: target T2 (pulsed with NYESO-1157-165)
Description: as §1, §2, §3

[6] = CTL line from Healthy1, E/T 12.5
[7] = CTL line from MelPt-B, E/T 12.5
[8] = CTL line from MelPt-C, E/T 12.5
[9] = CTL line from MelPt-D, E/T 12.5
[10] = CTL line from MelPt-F, E/T 12.5

F170W: NY-ESO-1157-170 APL F170W (SLLMWITQCFLPVW)
Stimulation of CD-4+ cells (CD-4+ cells): most effective

Q164S: NY-ESO-1157-170 APL Q164S (SLLMWITSCFLPVF)
Stimulation of CD-4+ cells (CD-4+ cells): most effective

A27M: APL clones of MART-126-35 containing methionine residues at P2; previously described superagonist
IFN-γ expression in P2 library screen of MART-126-35 [1]: greater IFN-γ expression than wild type MART-126-35

I162Q: NY-ESO-1157-170 APL I162Q (SLLMWQTQCFLPVF)
Stimulation of CD-4+ cells (CD-4+ cells): most effective

MART-126-35L33M (EAAGIGIMTV; UniProt Q16655 26-35, looked up, variant L33M)
Percentage Specific Lysis from polyclonal CTL lines generated with the indicated peptide [2, 6]: 38% | Percentage Specific Lysis from polyclonal CTL lines generated with the indicated peptide ([2]; CTL line from Healthy1, E/T 25): 49% | Percentage Specific Lysis from polyclonal CTL lines generated with the indicated peptide ([2]; CTL line from Healthy1, E/T 50): 57% | Percentage Specific Lysis from polyclonal CTL lines generated with the indicated peptide [2, 7]: 41% | Percentage Specific Lysis from polyclonal CTL lines generated with the indicated peptide ([2]; CTL line from MelPt-B, E/T 25): 52% | Percentage Specific Lysis from polyclonal CTL lines generated with the indicated peptide ([2]; CTL line from MelPt-B, E/T 50): 63% | Percentage Specific Lysis from polyclonal CTL lines generated with the indicated peptide [2, 8]: 76% | Percentage Specific Lysis from polyclonal CTL lines generated with the indicated peptide ([2]; CTL line from MelPt-C, E/T 25): 84% | Percentage Specific Lysis from polyclonal CTL lines generated with the indicated peptide ([2]; CTL line from MelPt-C, E/T 50): 91% | Percentage Specific Lysis from polyclonal CTL lines generated with the indicated peptide [2, 9]: 75% | Percentage Specific Lysis from polyclonal CTL lines generated with the indicated peptide ([2]; CTL line from MelPt-D, E/T 25): 84% | Percentage Specific Lysis from polyclonal CTL lines generated with the indicated peptide ([2]; CTL line from MelPt-D, E/T 50): 90% | Percentage Specific Lysis from polyclonal CTL lines generated with the indicated peptide [2, 10]: 65% | Percentage Specific Lysis from polyclonal CTL lines generated with the indicated peptide ([2]; CTL line from MelPt-F, E/T 25): 72% | Percentage Specific Lysis from polyclonal CTL lines generated with the indicated peptide ([2]; CTL line from MelPt-F, E/T 50): 70% | Percentage Specific Lysis from polyclonal CTL lines generated with the indicated peptide [3, 6]: 44% | Percentage Specific Lysis from polyclonal CTL lines generated with the indicated peptide ([3]; CTL line from Healthy1, E/T 25): 57% | Percentage Specific Lysis from polyclonal CTL lines generated with the indicated peptide ([3]; CTL line from Healthy1, E/T 50): 65% | Percentage Specific Lysis from polyclonal CTL lines generated with the indicated peptide [3, 7]: 58% | Percentage Specific Lysis from polyclonal CTL lines generated with the indicated peptide ([3]; CTL line from MelPt-B, E/T 25): 70% | Percentage Specific Lysis from polyclonal CTL lines generated with the indicated peptide ([3]; CTL line from MelPt-B, E/T 50): 80% | Percentage Specific Lysis from polyclonal CTL lines generated with the indicated peptide [3, 8]: 45% | Percentage Specific Lysis from polyclonal CTL lines generated with the indicated peptide ([3]; CTL line from MelPt-C, E/T 25): 52% | Percentage Specific Lysis from polyclonal CTL lines generated with the indicated peptide ([3]; CTL line from MelPt-C, E/T 50): 58% | Percentage Specific Lysis from polyclonal CTL lines generated with the indicated peptide [3, 9]: 45% | Percentage Specific Lysis from polyclonal CTL lines generated with the indicated peptide ([3]; CTL line from MelPt-D, E/T 25): 54% | Percentage Specific Lysis from polyclonal CTL lines generated with the indicated peptide ([3]; CTL line from MelPt-D, E/T 50): 57% | Percentage Specific Lysis from polyclonal CTL lines generated with the indicated peptide [3, 10]: 38% | Percentage Specific Lysis from polyclonal CTL lines generated with the indicated peptide ([3]; CTL line from MelPt-F, E/T 25): 42% | Percentage Specific Lysis from polyclonal CTL lines generated with the indicated peptide ([3]; CTL line from MelPt-F, E/T 50): 44% | Percentage Specific Lysis from polyclonal CTL lines generated with the indicated peptide [4, 6]: 10% | Percentage Specific Lysis from polyclonal CTL lines generated with the indicated peptide ([4]; CTL line from Healthy1, E/T 25): 13% | Percentage Specific Lysis from polyclonal CTL lines generated with the indicated peptide ([4]; CTL line from Healthy1, E/T 50): 13% | Percentage Specific Lysis from polyclonal CTL lines generated with the indicated peptide [4, 7]: 9% | Percentage Specific Lysis from polyclonal CTL lines generated with the indicated peptide ([4]; CTL line from MelPt-B, E/T 25): 12% | Percentage Specific Lysis from polyclonal CTL lines generated with the indicated peptide ([4]; CTL line from MelPt-B, E/T 50): 13% | Percentage Specific Lysis from polyclonal CTL lines generated with the indicated peptide [4, 8]: 5% | Percentage Specific Lysis from polyclonal CTL lines generated with the indicated peptide ([4]; CTL line from MelPt-C, E/T 25): 2% | Percentage Specific Lysis from polyclonal CTL lines generated with the indicated peptide ([4]; CTL line from MelPt-C, E/T 50): 0% | Percentage Specific Lysis from polyclonal CTL lines generated with the indicated peptide [4, 9]: 6% | Percentage Specific Lysis from polyclonal CTL lines generated with the indicated peptide ([4]; CTL line from MelPt-D, E/T 25): 4% | Percentage Specific Lysis from polyclonal CTL lines generated with the indicated peptide ([4]; CTL line from MelPt-D, E/T 50): 2% | Percentage Specific Lysis from polyclonal CTL lines generated with the indicated peptide [4, 10]: 5% | Percentage Specific Lysis from polyclonal CTL lines generated with the indicated peptide ([4]; CTL line from MelPt-F, E/T 25): 3% | Percentage Specific Lysis from polyclonal CTL lines generated with the indicated peptide ([4]; CTL line from MelPt-F, E/T 50): 2% | Percentage Specific Lysis from polyclonal CTL lines generated with the indicated peptide [5, 6]: 5% | Percentage Specific Lysis from polyclonal CTL lines generated with the indicated peptide ([5]; CTL line from Healthy1, E/T 25): 6% | Percentage Specific Lysis from polyclonal CTL lines generated with the indicated peptide ([5]; CTL line from Healthy1, E/T 50): 2% | Percentage Specific Lysis from polyclonal CTL lines generated with the indicated peptide [5, 7]: 4% | Percentage Specific Lysis from polyclonal CTL lines generated with the indicated peptide ([5]; CTL line from MelPt-B, E/T 25): 2% | Percentage Specific Lysis from polyclonal CTL lines generated with the indicated peptide ([5]; CTL line from MelPt-B, E/T 50): 2% | Percentage Specific Lysis from polyclonal CTL lines generated with the indicated peptide [5, 8]: 11% | Percentage Specific Lysis from polyclonal CTL lines generated with the indicated peptide ([5]; CTL line from MelPt-C, E/T 25): 12% | Percentage Specific Lysis from polyclonal CTL lines generated with the indicated peptide ([5]; CTL line from MelPt-C, E/T 50): 9% | Percentage Specific Lysis from polyclonal CTL lines generated with the indicated peptide [5, 9]: 8% | Percentage Specific Lysis from polyclonal CTL lines generated with the indicated peptide ([5]; CTL line from MelPt-D, E/T 25): 11% | Percentage Specific Lysis from polyclonal CTL lines generated with the indicated peptide ([5]; CTL line from MelPt-D, E/T 50): 14% | Percentage Specific Lysis from polyclonal CTL lines generated with the indicated peptide [5, 10]: 22% | Percentage Specific Lysis from polyclonal CTL lines generated with the indicated peptide ([5]; CTL line from MelPt-F, E/T 25): 21% | Percentage Specific Lysis from polyclonal CTL lines generated with the indicated peptide ([5]; CTL line from MelPt-F, E/T 50): 23%
